The values below come from publication PMC12379159 (Journal of Natural Products, 2025).

Molecules are shown by their SMILES. Positions count from the first letter of the chain named. pIC50: −log10 of the molar value.

One data set addresses T1, Gal4-hRORγ (Homo sapiens, UniProt P51449).
T1 construct: Encodes for a hRORγ-LBD:Gal4-DBD fusion protein; expressed in transfected cells; host or cells: HEK293
T1 sequence (P51449 269-508 limits assumed): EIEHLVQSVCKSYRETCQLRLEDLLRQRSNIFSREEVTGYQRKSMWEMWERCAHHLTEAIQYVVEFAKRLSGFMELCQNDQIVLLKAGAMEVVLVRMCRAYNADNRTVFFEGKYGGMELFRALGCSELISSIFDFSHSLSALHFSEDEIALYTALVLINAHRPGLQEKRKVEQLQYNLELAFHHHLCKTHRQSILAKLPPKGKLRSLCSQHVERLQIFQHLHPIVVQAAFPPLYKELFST
The data set can be described thus: Gal4-RORγ mammalian one-hybrid luciferase assay. In kind it is cell-based. To be noted: HEK293 cells. How it is done: (§1) For luciferase assays, 8 × 10^6 HEK293 cells were seeded on 150 mm cell culture dishes and incubated for 5 h. Afterward, cells were transfected with the calcium phosphate coprecipitation method using 5 μg of the nuclear receptor (Gal4-hRORγ or full-length human RORγ), 5 μg of a luciferase reporter (pTK-MH100 × 4-LUC for Gal4-hRORγ experiments or RORE-LUC for full-length human RORγ experiments) and 3 μg eGFP-N1 (for assessing transfection efficiency) plasmid DNA and incubated overnight. […] The medium was changed the following day, and cells were further incubated for another four to 5 h before trypsin/EDTA was added to detach them from the dishes. […] RLUs were normalized to relative fluorescence units (RFU) to account for differences in cell number and transfection efficiency and then normalized to the vehicle control. Results are expressed as fold activation relative to the vehicle control.
(§2) Concentration–response data were analyzed in GraphPad Prism version 10 by three-parameter logistic nonlinear regression, with the Hill slope constrained to a theoretical value of −1.0. An IC50 value was determined only for compounds yielding a statistically reliable fit. […] In these cases, only the maximal inhibition achieved at the highest tested concentration (I max(%) at 5 μM) is reported, calculated as follows: Imax(%)=(1−Bottom/Top)×100 (“top” = baseline activity measured at the lowest concentration, “bottom” = residual activity observed at the highest concentration, corresponding to the maximal inhibitory effect).

In the next data set the test system is EL-4-mRORγt cells. The data set can be described thus: Resazurin conversion assay in EL-4-mRORγt cells. The class given is cell-based, murine. To be noted: 5 μM, 20-24 h. The protocol: (§3) To check the metabolic activity of cells correlating with cell viability, cells were treated with the vehicle control (0.1% DMSO), digitonin as the positive control for cytotoxicity at 20 μg/mL (HEK293 cells) or 50 μg/mL (EL-4-mRORγt cells), or the compounds of interest at 5 μM for 18 h (HEK293 cells) or 20–24 h (EL-4-mRORγt cells). The next day, the medium was carefully removed and replaced with stripped DMEM without phenol red, containing 10 μg/mL resazurin sodium salt. Cells were incubated for 5 h before RFU values were measured at λem = 590 nm using a spectrophotometer. Cell viability was calculated as follows: Cell viability(%)=100×RFU value after compound treatment/RFU value after vehicle control treatment Cytotoxicity was defined as cell viability under 70% according to the ISO 10993–5 guidelines. Cell viability <90% is explicitly stated in the respective figure.

A further data set deals with T2, full-length human RORγ (Homo sapiens, UniProt P51449).
T2 construct: Encodes for the full-length human RORγ; expressed in transfected cells; host or cells: HEK293
T2 sequence (P51449 1-518): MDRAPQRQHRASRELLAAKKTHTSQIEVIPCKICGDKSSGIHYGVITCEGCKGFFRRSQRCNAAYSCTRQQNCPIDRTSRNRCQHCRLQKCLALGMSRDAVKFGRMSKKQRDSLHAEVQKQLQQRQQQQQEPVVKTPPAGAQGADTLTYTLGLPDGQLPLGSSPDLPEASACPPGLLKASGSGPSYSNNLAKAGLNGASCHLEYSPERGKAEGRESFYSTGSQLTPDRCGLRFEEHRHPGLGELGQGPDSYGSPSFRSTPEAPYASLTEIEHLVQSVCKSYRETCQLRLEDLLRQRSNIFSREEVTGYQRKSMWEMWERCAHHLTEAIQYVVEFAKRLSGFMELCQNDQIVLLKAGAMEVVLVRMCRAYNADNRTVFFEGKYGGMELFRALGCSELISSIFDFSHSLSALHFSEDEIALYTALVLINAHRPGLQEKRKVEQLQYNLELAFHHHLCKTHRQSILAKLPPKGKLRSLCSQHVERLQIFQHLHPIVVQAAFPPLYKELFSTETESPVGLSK
Description: Full-length RORγ luciferase assay (RORE-LUC reporter). To be noted: HEK293 cells, 5 μM. In kind it is cell-based. How it is done: as §1, §2

For data set [1], the system named is Il17a and Il17f (Il17a/f). Description: RT-qPCR of Il17a and Il17f in EL-4-mRORγt cells. The class given is cell-based, murine. To be noted: 5 μM, 20–24 h, then 4.5-h PMA and ionomycin. The protocol:
For RT-qPCR assays, 5 × 10^5 EL-4-mRORγt cells were seeded in 500 μL complete DMEM per well of a 24-well plate and treated with the vehicle control, the positive control, or the compounds of interest. After incubation for 20–24 h, cells were stimulated with Cell Activation Cocktail (PMA: 40.5 μM, ionomycin: 669.3 μM; 500X) for 4.5 h. Afterward, total RNA was isolated using the innuPREP RNA Mini Kit 2.0 according to the manufacturer’s instructions. According to the manufacturer’s instructions, 1 μg RNA was reverse-transcribed into cDNA using the High-Capacity cDNA Reverse Transcription Kit. RT-qPCR was performed using the Luna Universal qPCR Master Mix on a LightCycler 480 (Roche Diagnostics, Rotkreuz, Switzerland) according to the manufacturer’s instructions. […] Livak’s 2−ΔΔCt method was employed to determine the expression levels of RORγ target genes. This involved normalizing the target gene expression to the expression levels of the control gene 18s, followed by further normalization to the vehicle control.

The target of another data set is T3, hRORγ LBD (Homo sapiens, UniProt P51449).
T3 construct: His tag (N, cleaved yes); made in house; host or cells: Escherichia coli BL21 DE3
T3 sequence (P51449 264-518): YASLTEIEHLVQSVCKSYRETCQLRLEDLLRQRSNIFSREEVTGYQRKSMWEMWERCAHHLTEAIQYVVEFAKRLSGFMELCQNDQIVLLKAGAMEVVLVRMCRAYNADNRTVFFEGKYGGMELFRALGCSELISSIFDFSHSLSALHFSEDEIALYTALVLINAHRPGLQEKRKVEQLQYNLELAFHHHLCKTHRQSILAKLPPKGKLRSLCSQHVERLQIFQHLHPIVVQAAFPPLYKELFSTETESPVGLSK
Description: Thermal stability by nano differential scanning fluorimetry (nanoDSF). In kind it is binding. Particulars: RORγ-LBD with 4 equiv ligand vs without ligand; mean ± SD. The protocol: Soluble proteins were purified on Ni Hitrap FFcrude column (Cytiva), followed by His tag removal by thrombin (MP Biomedicals) cleavage and by size exclusion chromatography on HiLoad Superdex200 column (Cytiva) equilibrated in 20 mM Tris-HCl pH 7.5, 150 mM NaCl, 1 mM TCEP (Hampton Research). Purity and homogeneity of the hRORγ LBD were assessed by SDS-PAGE. The purified protein was concentrated to 0.5–1.0 mg/mL with an Amicon Ultra 10 kDa MWCO. The aliquots of purified LBD were incubated with 4 equiv ligands or vehicle for thermal stability experiments.
Fluorescence-based thermal experiments were performed using a Prometheus NT.48 (NanoTemper Technologies, Germany) with grade standard capillaries containing 10 μL of RORγLBD with different ligands. […] NanoTemper PR. Stability Analysis v1.0.2 was used to fit the data and determine the melting temperatures Tm.
(In general: In DSF a fluorescence change marks the thermal transition of the protein.)

For a further data set, the system named is HEK293 cells. Description: Resazurin conversion assay in HEK293 cells. In kind it is cell-based, human. Particulars: 5 μM, 18 h. The protocol: as §3
On the technique in general: Resazurin is reduced to fluorescent resorufin, in cell work by metabolically active cells.

The target of the next data set is T4, Gal4-RORγ H479L (Homo sapiens, UniProt P51449, H479L).
T4 sequence (P51449 269-508 H479L limits assumed): T1 sequence (P51449 269-508 limits assumed) with H211L
The data set can be described thus: Gal4-RORγ H479L mutant luciferase assay. Particulars: 5 μM.

Description for Gal4-RORγ H479L: Gal4-hRORγ H323A and H479L mutants were generated using the QuikChange Lightning Site-Directed Mutagenesis Kit according to the manufacturer’s instructions. Briefly, 10 ng template DNA (Gal4-hRORγ) was PCR-amplified with the respective mutagenic forward and reverse primers listed in Table S3, which were designed using the QuikChange Primer Design tool (https://www.agilent.com/store/primerDesignProgram.jsp). […] Two μL of the PCR product were then transformed into XL1-Blue competent E. coli according to a protocol provided by NEB. […] After centrifuging the main culture at 5691g for 10 min, the supernatant was decanted, and plasmid preparation was performed using the PureLink HiPure Plasmid Midiprep Kit according to the manufacturer’s instructions. DNA yields and purities were checked using a NanoDrop 2000c (Thermo Fisher Scientific, Waltham, MA, USA).

Usually pIC50 stands for the negative decadic logarithm of the IC50, by convention in mol/L. Read a high pIC50 as a low IC50. Consider `C=C(C)[C@@H]1CC[C@]2(C(=O)O)CC[C@]3(C)[C@H](CC[C@@H]4[C@@]5(C)CC[C@H](O)C(C)(C)[C@@H]5CC[C@]43C)[C@@H]12` [Betulinic acid, reference compound], for which, on Gal4-hRORγ (5 μM), the “Imax(%) at 5 μM, Gal4-RORγ luciferase assay” value came to 47%. Further, the negative logarithm of the IC50 (pIC50) on Gal4-hRORγ (18 h treatment, up to 5 μM) was 5.92. The “Cytotoxic effects, resazurin conversion assay” value in the data set with EL-4-mRORγt cells and with HEK293 cells was “no cytotoxic effects” throughout. Moreover, the “Imax(%) at 5 μM, full-length RORγ luciferase assay” value at full-length human RORγ is reported as 38%. Also, in data set [1], the Il17a/f expression entry was “reduction of Il17a/f expression”. The “ΔTm measured with nano differential scanning fluorimetry” value at hRORγ LBD came out at 9.1 ± 0.2 °C. The “Activity on Gal4-RORγ H479L vs WT” value on Gal4-RORγ H479L was “notable decrease in activity”.
